The values below come from patent US20230131427A1, “FUNGICIDAL COMPOSITIONS” (SYNGENTA CROP PROTECTION AG, priority 2020, published 2023).

Structures are written as SMILES. Where “and” joins values, the source holds several entries; their conditions need not be identical. Equal entries are not always repeated. Where two headings read alike, the source gives them in different places. Some results are limits rather than exact numbers.

The subject of data set [1] is Puccinia recondita f. sp. tritici. Put plainly: Puccinia recondita f. sp. tritici / wheat / leaf disc preventative (brown rust). The format is in vivo. Particulars: foliar, vs untreated control. On the procedure: (§1) Leaf disks or leaf segments of various plant species are cut from plants grown in a greenhouse. The cut leaf disks or segments are placed in multiwell plates (24-well format) onto water agar. The leaf disks are sprayed with a test solution before (preventative) or after (curative) inoculation. Compounds to be tested are prepared as DMSO solutions (max. 10 mg/mL) which are diluted to the appropriate concentration with 0.025% Tween20 just before spraying. The inoculated leaf disks or segments are incubated under defined conditions (temperature, relative humidity, light, etc.) according to the respective test system. A single evaluation of disease level is carried out 3 to 14 days after inoculation, depending on the pathosystem. Percent disease control relative to the untreated check leaf disks or segments is then calculated.
Wheat leaf segments cv. Kanzler are placed on agar in multiwell plates (24-well format) and sprayed with the formulated test compound diluted in water. The leaf disks are inoculated with a spore suspension of the fungus 1 day after application. The inoculated leaf segments are incubated at 19° C. and 75% rh under a light regime of 12 h light/12 h darkness in a climate cabinet and the activity of a compound is assessed as percent disease control compared to untreated when an appropriate level of disease damage appears in untreated check leaf segments (7-9 days after application).

Data set [2] has the same test system. In words: Puccinia recondita f. sp. tritici / wheat / leaf disc curative (brown rust). The class given is in vivo. The settings on record: foliar, vs untreated control. Here is the method:
Leaf disks or leaf segments of various plant species are cut from plants grown in a greenhouse. The cut leaf disks or segments are placed in multiwell plates (24-well format) onto water agar. The leaf disks are sprayed with a test solution before (preventative) or after (curative) inoculation. […] The inoculated leaf disks or segments are incubated under defined conditions (temperature, relative humidity, light, etc.) according to the respective test system. […] Percent disease control relative to the untreated check leaf disks or segments is then calculated. Wheat leaf segments cv. Kanzler are placed on agar in multiwell plates (24-well format). The leaf segments are inoculated with a spore suspension of the fungus. […] The formulated test compound diluted in water is applied 1 day after inoculation.

The subject of data set [3] is Phakopsora pachyrhizi. Put plainly: Phakopsora pachyrhizi / soybean / leaf disc preventative (Asian soybean rust). The class given is in vivo. Particulars: foliar, 288 h, vs untreated control. Here is the method: as §1
Soybean leaf disks are placed on agar in multiwell plates (24-well format) and sprayed with test solutions. After drying, the leaf disks are inoculated with a spore suspension of the fungus. After appropriate incubation the activity of a compound is assessed approx.12 dpi (days after inoculation) as preventive fungicidal activity.

The subject of data set [4] is Glomerella lagenarium (Colletotrichum lagenarium). Put plainly: Glomerella lagenarium (Colletotrichum lagenarium) liquid culture / cucumber / preventative (anthracnose). The class given is cell-based. Particulars: Colletotrichum orbiculare, vs untreated control. On the procedure: Mycelia fragments or conidia suspensions of a fungus prepared either freshly from liquid cultures of the fungus or from cryogenic storage, are directly mixed into nutrient broth. DMSO solutions of the test compound (max. 10 mg/mL) are diluted with 0.025% Tween20 by a factor of 50 and 10 μl of this solution is pipetted into a microtiter plate (96-well format). The nutrient broth containing the fungal spores/mycelia fragments is then added to give an end concentration of the tested compound. The test plates are incubated in the dark at 24° C. and 96% relative humidity. The inhibition of fungal growth is determined photometrically after 2 to 7 days, depending on the pathosystem, and percent antifungal activity relative to the untreated check is calculated.
Conidia of the fungus from cryogenic storage are directly mixed into nutrient broth (PDB potato dextrose broth). After placing a (DMSO) solution of test compound into a microtiter plate (96-well format), the nutrient broth containing the fungal spores is added.

Data set [5] concerns Glomerella lagenarium syn. Colletotrichum lagenarium. Put plainly: Example B1: mixtures, preventative activity against Glomerella lagenarium syn. Colletotrichum lagenarium, liquid culture. The class given is cell-based. The settings on record: Colletotrichum orbiculare; component A alone, 0.03 ppm. A digest of the protocol: (§2)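 Fungal conidia mixed into potato dextrose broth were added to test compounds or mixtures in DMSO in microtiter wells. Fungicidal activity was scored on a 100-0 scale (100 = no disease growth; 0 = well fully covered by mycelium). Synergy was assessed by the Colby formula, comparing observed (O) with expected (E) action.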

The test system of a further data set is Septoria glycines. In words: Example B2: mixtures, preventative activity against Septoria glycines (brown spot), liquid culture. Particulars: Septoria glycines, component A alone. The format is cell-based. A digest of the protocol: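 Conidia from fresh culture mixed into potato dextrose broth and added to test compounds in DMSO in 96-well plates. Growth inhibition scored 100-0 (100 = no growth; 0 = well covered by mycelium); synergy of mixtures judged by Colby expected-action (O-E).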

The next data set deals with Septoria tritici. In words: Example B3: mixtures, preventative activity against Septoria tritici (leaf blotch), liquid culture. The format is cell-based. Particulars: component A alone; for inhibition at 0.003125 ppm / inhibition at 0.00625 ppm / inhibition at 0.03 ppm: Zymoseptoria tritici; for inhibition at 0.03 ppm: read-out: Activity (%) A. In outline:
as §2

The test system of data set [6] is Mycosphaerella arachidis syn. Cercospora arachidicola. Put plainly: Example B4: mixtures, preventative activity against Mycosphaerella arachidis syn. Cercospora arachidicola (brown leaf spot of peanut), liquid culture. The settings on record: Mycosphaerella arachidis, component A alone. The class given is cell-based. The source says:
This occurs whenever the action of an active ingredient combination is greater than the sum of the actions of the individual components. The action to be expected E for a given active ingredient combination obeys the so-called COLBY formula and can be calculated as follows (COLBY, S. R. “Calculating synergistic and antagonistic responses of herbicide combination”. Weeds, Vol. 15, pages 20-22; 1967):
If the action actually observed (O) is greater than the expected action (E), then the action of the combination is super-additive, i.e. there is a synergistic effect. In mathematical terms, synergism corresponds to a positive value for the difference of (O-E). In the case of purely complementary addition of activities (expected activity), said difference (O-E) is zero. A negative value of said difference (O-E) signals a loss of activity compared to the expected activity.
Conidia of the fungus from cryogenic storage were directly mixed into nutrient broth (PDB potato dextrose broth). A DMSO solution of the test compounds was placed into a microtiter plate (96-well format) and the nutrient broth containing the fungal spores was added to it.
Cercospora arachidicola (Brown leaf spot of peanut). Fungicidal activity was evaluated on a 100-0 scale (100=no disease growth; 0=well completely covered by mycelium).

Data set [7] relates to Phakopsora pachyrhizi. In words: Example B5: preventative activity against Phakopsora pachyrhizi (soybean rust), whole soybean plants sprayed, leaf disks inoculated. The class given is in vivo. In outline:
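Soybean plants sprayed 4 weeks after planting at rates in g a.i./ha; leaf disks from the first trifoliate cut 1 day later and inoculated with rust, five repetitions per rate. Scored 11–14 days post-inoculation relative to untreated infested check (100 = no disease, 0 = heavy infestation).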

[8] abbreviates: Phakopsora pachyrhizi, foliar, applied alone, 9 g/ha, read-out: Observed Activity (% of untreated) against Phakopsora pachyrhizi.

By pest or weed control is commonly meant the degree to which the test organism was suppressed or injured, in per cent. High values mean a strong effect, low ones a weak effect. What is called inhibition of growth is the drop in the measured response relative to a control, in per cent. A higher inhibition of growth goes with a strong effect. The melting point is the temperature, or range, at which the solid turns liquid. For `CCCc1ccn(-c2ccc(C)c(O/C(=C\OC)C(=O)OC)c2)n1` [X.01, methyl (Z)-3-methoxy-2-[2-methyl-5-(3-propylpyrazol-1-yl)phenoxy]prop-2-enoate], the melting point fell in the range of 91 to 94 °C. Besides, the pest or weed control at 200 ppm in data set [1] was ≥ 80%. Besides, the pest or weed control at 200 ppm in data set [2] is ≥ 80%. Besides, in the data set on Phakopsora pachyrhizi [3], the pest or weed control at 67 ppm is ≥ 80%. Further, in data set [4], the inhibition of growth at 6.7 ppm is ≥ 80%. The inhibition at 0.03 ppm in data set [5] stood at 70%. In the data set on Septoria glycines, the inhibition at 0.003125 ppm amounted to 20% and the inhibition at 0.00625 ppm turned out to be 70%. The inhibition at 0.003125 ppm in the data set with Septoria tritici (0.003125 ppm, 100-0 scale) was 20%. Moreover, in the data set with Septoria tritici (0.00625 ppm, 100-0 scale), the inhibition at 0.00625 ppm turned out to be 50% and the “Activity (%) A” value is given as 70%. Moreover, in data set [6], the inhibition at 0.003125 ppm stood at 0% and the inhibition at 0.00625 ppm was 20%. The inhibition at 9 g/ha in the data set with Phakopsora pachyrhizi [7] (Phakopsora pachyrhizi, foliar, active ingredient alone, 9 g/ha, read-out: Observed Activity (%) (% of untreated)) came to 78%. In addition, the inhibition at 18 g/ha in the data set on Phakopsora pachyrhizi [7] (Phakopsora pachyrhizi, foliar, active ingredient alone, 18 g/ha, read-out: Observed Activity (%) (% of untreated)) worked out at 85%. In addition, the inhibition at 9 g/ha with Phakopsora pachyrhizi [7] (setting [8]) was 85%. For the same compound, the “Observed Activity (%) (% of untreated)” value in the data set on Phakopsora pachyrhizi [7] (active ingredient alone, 4.5 g/ha) was 61% and 87% and 82% and 69%. For the same compound, the “Observed Activity (%) (% of untreated)” value in the data set with Phakopsora pachyrhizi [7] (active ingredient alone, 9 g/ha) is 94% and 90%. For the same compound, the “Observed Activity (%) (% of untreated)” value in the data set on Phakopsora pachyrhizi [7] (active ingredient alone, 18 g/ha) stood at 97%. Further, the “Observed Activity (% of untreated) against Phakopsora pachyrhizi” value (from here on “Observed Activity (% of untreated)”) with Phakopsora pachyrhizi [7] (applied alone, 2.25 g/ha) is 24% and 31%. Further, in the data set with Phakopsora pachyrhizi [7] (applied alone, 4.5 g/ha), the “Observed Activity (% of untreated)” value is 69% and 64%.
In turn, `CO/C=C(\Oc1cc(-n2ccc(C(C)C)n2)ccc1C)C(=O)OC` [X.06, methyl (Z)-2-[5-(3-isopropylpyrazol-1-yl)-2-methyl-phenoxy]-3-methoxy-prop-2-enoate] yielded a melting point of 88 to 91 °C. Moreover, the pest or weed control at 200 ppm in data set [1] is ≥ 80%. The pest or weed control at 200 ppm in data set [2] is ≥ 80%. Further, the pest or weed control at 67 ppm with Phakopsora pachyrhizi [3] is ≥ 80%. In data set [4], the inhibition of growth at 6.7 ppm is ≥ 80%. For the same compound, in data set [5], the inhibition at 0.03 ppm was found to be 20%. In addition, in the data set with Septoria glycines (100-0 scale), the inhibition at 0.003125 ppm stood at 0% and the inhibition at 0.00625 ppm is 50%. Also, the inhibition at 0.025 ppm in the data set on Septoria glycines (0.025 ppm, 100-0 scale) worked out at 90%. Moreover, in the data set with Septoria tritici (0.00625 ppm, 100-0 scale), the inhibition at 0.00625 ppm was 50%. The inhibition at 0.03 ppm in the data set on Septoria tritici (100-0 scale) is 70%. In the data set with Septoria tritici (0.003125 ppm, 100-0 scale), the “Activity (%) A” value is reported as 0%. In addition, in data set [6], the inhibition at 0.003125 ppm turned out to be 20% and the inhibition at 0.00625 ppm was found to be 50%. Also, in the data set with Phakopsora pachyrhizi [7] (Phakopsora pachyrhizi, foliar, applied alone, 2.25 g/ha, read-out: Observed Activity (% of untreated) against Phakopsora pachyrhizi), the inhibition at 2.25 g/ha was determined as 10%. In addition, the inhibition at 9 g/ha in the data set with Phakopsora pachyrhizi [7] (setting [8]) amounted to 97%. Besides, the inhibition at 18 g/ha in the data set with Phakopsora pachyrhizi [7] (Phakopsora pachyrhizi, foliar, applied alone, 18 g/ha, read-out: Observed Activity (% of untreated) against Phakopsora pachyrhizi) was found to be 97%. For the same compound, in the data set on Phakopsora pachyrhizi [7] (applied alone, 2.25 g/ha), the “Observed Activity (% of untreated)” value is 13% and 9%; the “Observed Activity (%) (% of untreated) against Phakopsora pachyrhizi” value worked out at 71%. In addition, in the data set with Phakopsora pachyrhizi [7] (applied alone, 4.5 g/ha), the “Observed Activity (% of untreated)” value was 61% and 48% and 73%; the “Observed Activity (%) (% of untreated) against Phakopsora pachyrhizi” value is 94%. For the same compound, the “Observed Activity (% of untreated)” value in the data set on Phakopsora pachyrhizi [7] (applied alone, 9 g/ha) is 81% and 93%.
Regarding `CO/C=C(\Oc1cc(-n2ccc(C3CC3)n2)ccc1C)C(=O)OC` [X.07, methyl (Z)-2-[5-(3-cyclopropylpyrazol-1-yl)-2-methyl-phenoxy]-3-methoxy-prop-2-enoate], the melting point was 115 to 118 °C. Also, the pest or weed control at 200 ppm in data set [1] is ≥ 80%. For the same compound, the pest or weed control at 200 ppm in [2] was ≥ 80%. In addition, in the data set with Phakopsora pachyrhizi [3], the pest or weed control at 67 ppm was ≥ 80%. Moreover, in [4], the inhibition of growth at 6.7 ppm was ≥ 80%.
Consider `CO/C=C(\Oc1cc(-n2ncc(C(F)(F)F)n2)ccc1C)C(=O)OC` [X.10, methyl (Z)-3-methoxy-2-[2-methyl-5-[4-(trifluoromethyl)triazol-2-yl]phenoxy]prop-2-enoate], for which the melting point is 107 to 109 °C. Moreover, the pest or weed control at 200 ppm in data set [1] is ≥ 80%. Also, the pest or weed control at 200 ppm in data set [2] was ≥ 80%. Moreover, the pest or weed control at 67 ppm with Phakopsora pachyrhizi [3] is ≥ 80%. Besides, the inhibition of growth at 6.7 ppm in data set [4] is ≥ 80%. Moreover, the inhibition at 0.03 ppm in [5] came to 0%. In addition, in the data set with Septoria glycines (100-0 scale), the inhibition at 0.003125 ppm was found to be 70% and the inhibition at 0.00625 ppm was found to be 90%. Moreover, the inhibition at 0.03 ppm in the data set on Septoria glycines (0.03 ppm, 100-0 scale, read-out: Activity (%) A) came to 0%. The inhibition at 0.003125 ppm in the data set on Septoria tritici (72 h, 0.003125 ppm) was 70%. In the data set with Septoria tritici (72 h, 0.00625 ppm), the inhibition at 0.00625 ppm turned out to be 90%. Also, the inhibition at 0.03 ppm with Septoria tritici (72 h, 72 hrs) stood at 0%. In addition, in [6], the inhibition at 0.003125 ppm turned out to be 70% and the inhibition at 0.00625 ppm was 90%. For the same compound, the inhibition at 0.03 ppm in [6] (0.03 ppm) came out at 0%.
